One data set deals with chronic eyelid eczema. As to the kind of experiment: Topical treatment of chronic eyelid eczema (Subject 1). The following applies: previously treated with emollients and hydrocortisone. The data set is classed as in vivo, human. How it is done:
A topical composition of the present invention, referred to herein as Composition 1, comprising as active ingredients Albizzia lebbeck (1%), schisandra chinensis (0.1%), and ophiopogon japonicus (2%), as well as petrolatum, water, glycerin, sodium hyaluronate, dimethicone, glyceryl stearate, acrylates, disodium EDTA, capric triglyceride, propanediol, phenoxyethanol, and triethanolamine, was prepared and administered to subjects as follows: Subject 1 suffered from chronic eyelid eczema characterized by persistent severe itching and scaling of the eyelids.

A further data set has as its system chronic scalp dermatitis. Kind of data set: Topical treatment of chronic scalp dermatitis (Subject 3). The following applies: past treatment of the scalp with clobetasol 0.05% solution. The data set is classed as in vivo, human. The method, then:
A topical composition of the present invention, referred to herein as Composition 1, comprising as active ingredients Albizzia lebbeck (1%), schisandra chinensis (0.1%), and ophiopogon japonicus (2%), as well as petrolatum, water, glycerin, sodium hyaluronate, dimethicone, glyceryl stearate, acrylates, disodium EDTA, capric triglyceride, propanediol, phenoxyethanol, and triethanolamine, was prepared and administered to subjects as follows:
Subject 3 suffered from chronic scalp dermatitis characterized by persistent severe itching and scaling of the scalp. […] Untreated areas were persistently itchy and scaly.

For the molecule `C[C@]12CCC(=O)C=C1CC[C@@H]1[C@@H]2[C@@H](O)C[C@@]2(C)[C@H]1CC[C@]2(O)C(=O)CO` [hydrocortisone], the “improvement with previous treatment” value in the data set with chronic eyelid eczema is recorded as “minimal improvement”.
Consider `C[C@H]1C[C@H]2[C@@H]3CCC4=CC(=O)C=C[C@]4(C)[C@@]3(F)[C@@H](O)C[C@]2(C)[C@@]1(O)C(=O)CCl` [clobetasol], for which the adverse side effects result in the data set on chronic scalp dermatitis was “adverse side effects including acne and skin atrophy”.

These data come from patent US20150297652A1, “COMPOSITIONS AND METHODS FOR THEIR DERMATOLOGICAL USE” (VITA NATURALE, LLC, priority 2012, published 2015).
